# Data reported in patent US20180161376A1, “COMPOSITIONS AND METHODS FOR NEURONAL DIFFERENTIATION OF CELLS” (Northern Sydney Local Health District, priority 2014, published 2018).
# How the values were obtained:
# Assay type in all cases: cell-based, human
# SMAD4 = assay: RT-qPCR of SMAD4 mRNA in olfactory neurospheres treated with SB, LDN and TRIM; settings: ONS cells
# Procedure: Primary olfactory cells were dissociated into single cells and seeded onto Poly L-Lysine (Sigma) coated tissue culture dishes at 20,000 cells/cm^2 in sphering media, which consists of DMEM+1×ITS+[…]. Cells were then incubated at 37° C. with 5% CO2 until neurospheres started to form. This normally takes 2-3 days. Small neurospheres (<200 μm in diameter) were manually picked under a dissecting microscope (Leica) and collected for differentiation.
# For olfactory neurosphere differentiation experiments, cells were cultured in ONS differentiation media, which consists of neural basal media+1×B27+1×L-glutamine+pen/strep+1×β-mercaptoethanol+AA+BDNF supplemented with combinations of SB, LDN and TRIM. Cells were differentiated for 3-4 days before collected for analysis. Media was changed on the second day.
# RT-qPCR was performed on cDNA samples with a Rotor-Gene 6000 (Corbett) using SYBER green based assays (Qiagen). All samples were normalized to GAPDH and the relative expression of each gene was determined using the delta-delta CT method. The primer sequences used are as follows:
# The ability for ONS to respond to the treatments of SB, LDN and TRIM was tested. QPCR was performed according to the methods described in the foregoing examples.
# [1] = tested on: olfactory neurospheres (ONS); assay: Olfactory neurosphere (ONS) neuronal differentiation, immunostaining and morphology; settings: added to ONS differentiation media, 3-4 days
# Procedure: Cells were fixed in 4% paraformaldehyde for 20 min and then blocked for 2 h at room temperature before incubated with the appropriate primary antibodies overnight at 4° C. The following primary antibodies were used: mouse β-III-tubulin (Sigma, 1:500), mouse N-cam (Dako, 1:100), mouse GFAP (Merk, 1:500), chicken Sox1 (Merk, 1:500), rabbit Nestin (Merk, 1:500), rabbit Neurofilament-Light (Merk, 1:500), rabbit Synapsin (Calbiochem, 1:500) and sheep Olfactory Marker Protein (Abcam, 1:500). Appropriate secondary antibodies were added and incubated for lh before samples were washed and mounted using Prolong Gold (Invitrogen) and analyzed using either a fluorescent microscope (Nikon) or a confocal microscope (Leica). All secondary antibodies were from Molecular Probes and diluted at 1:1000, except for anti-sheep secondary antibody, which was from Dako and diluted at 1:500.
# Primary olfactory cells were dissociated into single cells and seeded onto Poly L-Lysine (Sigma) coated tissue culture dishes at 20,000 cells/cm^2 in sphering media, which consists of DMEM+1×ITS+50 μg/mL EGF+25 μg/mL FGF2. Cells were then incubated at 37° C. with 5% CO2 until neurospheres started to form. This normally takes 2-3 days. Small neurospheres (<200 μm in diameter) were manually picked under a dissecting microscope (Leica) and collected for differentiation. […]
# olfactory primary cells = assay: Olfactory primary cell culture differentiation, β-III-tubulin immunostaining; settings: 100 μM TRIM added, in all conditions, 4-7 days
SMILES,level of inhibition of SMAD4 (SMAD4; compared to cells cultured in the absence of inhibitors) [%],neurite morphology [1],mRNA level / expression of SMAD4 (SMAD4; compared to cells cultured without inhibitors),β-III-tubulin positive cells on addition of NOS inhibitor (olfactory primary cells)
"Cl.c1ccc2c(-c3cnn4cc(-c5ccc(N6CCNCC6)cc5)cnc34)ccnc2c1 [LDN193189, 4-(6-(4-(piperazin-1-yl)phenyl)pyrazolo[1,5-a]pyrimidin-3-yl)quinolone hydrochloride]",80,short neurites,,
"NC(=O)c1ccc(-c2nc(-c3ccc4c(c3)OCO4)c(-c3ccccn3)[nH]2)cc1 [SB431542, 4-[4-(1,3-benzodioxol-5-yl)-5-(2-pyridinyl)-1H-imidazol-2-yl]benzamide]",,short neurites,no change,
"FC(F)(F)c1ccccc1-n1ccnc1 [TRIM, 1-(2-Trifluoromethylphenyl) Imidazole]",,,,further increase in β-III-tubulin positive cells
